The source of these data is paper PMC5554137, “Evaluation of novel factor Xa inhibitors from Oxya chinensis sinuosa with anti-platelet aggregation activity” (Scientific Reports, 2017).

Each structure is given as a SMILES string. Bounds are passed on as bounds.

In series [1] the target is T1, α-Thrombin (Homo sapiens, UniProt P00734).
T1 construct: FXa converts prothrombin to thrombin; purchased Haematologic Technologies (Essex Junction, VT, USA)
The series is described as follows: Chromogenic substrate assay, Ki determination, α-Thrombin. The format is biochemical. Here is the method:
(§1) The inhibitor (I) constants (Ki) were determined for the inhibition of a series of human enzymes (FXa, thrombin, trypsin, plasmin, protein Ca, streptokinase, tPA, and urokinase) by each compound. Chromogenic substrate assays were performed using a Labsystems IEMS (Cergy Pontoise, France) microtiter plate reader. In each assay, the compound was tested at a minimum of seven concentrations in duplicate to obtain an inhibition curve. Assays were performed according to the following general procedure. In a 96-well microtiter plate, 25 μL of compound, inhibitor solution or buffer was added to 50 μL of substrate. A volume of 25 μL of enzyme solution was added just before the plate was placed in the microtiter plate reader for 1 h at 37 °C. The hydrolysis of the substrate yields p-nitroaniline, which was continuously monitored spectrophotometrically at 405 nm. Data were collected and the initial rate of substrate hydrolysis [Vo (mOD/minute)] was calculated. Following Michaelis-Menten kinetics, the affinity of the enzyme for the substrate, in the absence of the inhibitor (Km) and in the presence of an inhibitor (Kp), was determined to be the negative inverse x-intercept of Lineweaver–Burk plots. The dissociation constant for inhibition (Ki) was calculated using the following equation: Ki = (Km·[I])/(Kp − Km) as described by Williams and Morrison[40].

Series [2] deals with Trypsin. In words: Chromogenic substrate assay, Ki determination, Trypsin. Format: biochemical, human. How it is done: as §1
For series [3], the target named is Plasmin (Homo sapiens, UniProt P00747). In words: Chromogenic substrate assay, Ki determination, Plasmin. The format is biochemical. Here is the method: as §1
Chain of Plasmin (P00747 581-810 limits assumed): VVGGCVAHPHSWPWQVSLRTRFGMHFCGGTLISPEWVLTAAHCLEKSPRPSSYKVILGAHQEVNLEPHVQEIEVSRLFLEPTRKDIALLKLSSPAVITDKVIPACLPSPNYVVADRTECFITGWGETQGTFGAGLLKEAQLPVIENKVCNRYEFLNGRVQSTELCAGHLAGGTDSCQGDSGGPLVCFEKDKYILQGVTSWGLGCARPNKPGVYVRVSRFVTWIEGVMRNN
Chain of Plasmin (P00747 97-580 limits assumed): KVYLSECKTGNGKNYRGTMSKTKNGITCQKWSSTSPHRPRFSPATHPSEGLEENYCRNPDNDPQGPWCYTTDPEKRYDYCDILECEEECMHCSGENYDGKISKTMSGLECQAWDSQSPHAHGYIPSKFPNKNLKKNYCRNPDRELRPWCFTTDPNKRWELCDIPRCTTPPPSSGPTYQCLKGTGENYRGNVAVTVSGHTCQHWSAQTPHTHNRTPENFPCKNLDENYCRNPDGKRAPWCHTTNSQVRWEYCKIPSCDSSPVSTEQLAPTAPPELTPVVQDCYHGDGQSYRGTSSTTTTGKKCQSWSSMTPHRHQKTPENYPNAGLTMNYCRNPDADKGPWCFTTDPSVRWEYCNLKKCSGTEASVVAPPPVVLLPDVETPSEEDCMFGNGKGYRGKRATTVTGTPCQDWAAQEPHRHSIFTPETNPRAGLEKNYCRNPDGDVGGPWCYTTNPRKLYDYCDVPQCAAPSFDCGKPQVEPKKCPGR
For series [4], the target named is Protein Ca (Homo sapiens, UniProt P04070). In words: Chromogenic substrate assay, Ki determination, Protein Ca. Format: biochemical. How it is done: as §1
Chain of Protein Ca (P04070 212-461 limits assumed): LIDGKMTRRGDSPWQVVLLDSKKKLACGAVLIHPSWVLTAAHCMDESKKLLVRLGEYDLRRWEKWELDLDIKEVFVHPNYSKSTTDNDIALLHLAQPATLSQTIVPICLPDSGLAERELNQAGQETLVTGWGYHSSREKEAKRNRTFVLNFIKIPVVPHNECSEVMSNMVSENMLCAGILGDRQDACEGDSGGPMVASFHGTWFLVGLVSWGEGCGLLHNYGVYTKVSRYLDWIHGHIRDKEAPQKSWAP
Chain of Protein Ca (P04070 43-197 limits assumed): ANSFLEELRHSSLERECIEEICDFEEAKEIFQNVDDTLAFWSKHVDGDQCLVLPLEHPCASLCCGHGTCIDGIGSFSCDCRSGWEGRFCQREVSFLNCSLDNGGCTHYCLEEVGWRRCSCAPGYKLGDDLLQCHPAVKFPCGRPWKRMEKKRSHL
Series [5] has as its system Streptokinase (Homo sapiens). The series is described as follows: Chromogenic substrate assay, Ki determination, Streptokinase. Format: biochemical. Here is the method: as §1
Series [6] has as its target tPA (Homo sapiens, UniProt P00750). In words: Chromogenic substrate assay, Ki determination, tPA. Format: biochemical. Here is the method:
as §1

Series [7] deals with Urokinase (Homo sapiens, UniProt P00749). The series is described as follows: Chromogenic substrate assay, Ki determination, Urokinase. The format is biochemical. How it is done: as §1
In series [8] the test system is C57BL/6 mice. The series is described as follows: Tail bleeding time. Format: in vivo. The conditions noted are these: tail-cutting assay, mean ± SD, n = 10. Here is the method:
Figure 4 Effects of compounds 1–4 on clotting and bleeding time. (A) One hour after administration (intravenous injection) of compound 1 (white box), 2 (light gray box), 3 (dark gray box), or 4 (black box), blood was collected from the mice and platelet-poor plasma (PPP) was obtained by centrifugation at 2,000 × g for 10 min at room temperature to test ex vivo activated partial thromboplastin time (aPTT). (B) Each group received a daily intravenous injection of the indicated compound for four consecutive days. Fifteen minutes after the last administration, blood samples were collected and in vivo aPTT was measured. (C) Fifteen minutes after administration of each compound or aspirin (4.5 or 9 mg/kg for 30 min) or the vehicle, tail tips (3 mm long) were cut from each mouse, and the remaining tail was immediately immersed into saline at 37 °C. Accumulated bleeding times (including periods of re-bleeding) were recorded. D = 0.2% DMSO used as the vehicle control. Data are presented as means ± SD of three independent experiments. *p < 0.05 vs. vehicle alone, analyzed by one-way ANOVA, followed by Tukey multiple comparison testing.
To assess bleeding risk incurred by compounds 1–4, we measured bleeding time in mice treated with each compound (up to 30 µM/mouse) by using a tail-cutting assay; the concentration used was three-fold higher than the doses used for the in vivo anti-thrombotic studies. Aspirin-treated mice (9 mg/kg) served as positive controls. […] However, the bleeding time in mice treated with compounds 1–4 was shorter than that observed in mice treated with aspirin ([…], mean ± SD, n = 10). The dose required to avoid thrombus formation and to protect against paralysis or death in mice was determined to be 5 µM per mouse (Fig. 7C).
Tail bleeding times were measured using the method described by Dejana et al.[37]. Briefly, C57BL/6 mice were fasted overnight prior to the experiments. […] after the i.v. administration of each compound, the tails of the mice were transected […] from their tips. Bleeding time was defined as the time elapsed until bleeding stopped. Bleeding times that exceeding 15 min were recorded as 15 min.

Chain of tPA (P00750 36-562): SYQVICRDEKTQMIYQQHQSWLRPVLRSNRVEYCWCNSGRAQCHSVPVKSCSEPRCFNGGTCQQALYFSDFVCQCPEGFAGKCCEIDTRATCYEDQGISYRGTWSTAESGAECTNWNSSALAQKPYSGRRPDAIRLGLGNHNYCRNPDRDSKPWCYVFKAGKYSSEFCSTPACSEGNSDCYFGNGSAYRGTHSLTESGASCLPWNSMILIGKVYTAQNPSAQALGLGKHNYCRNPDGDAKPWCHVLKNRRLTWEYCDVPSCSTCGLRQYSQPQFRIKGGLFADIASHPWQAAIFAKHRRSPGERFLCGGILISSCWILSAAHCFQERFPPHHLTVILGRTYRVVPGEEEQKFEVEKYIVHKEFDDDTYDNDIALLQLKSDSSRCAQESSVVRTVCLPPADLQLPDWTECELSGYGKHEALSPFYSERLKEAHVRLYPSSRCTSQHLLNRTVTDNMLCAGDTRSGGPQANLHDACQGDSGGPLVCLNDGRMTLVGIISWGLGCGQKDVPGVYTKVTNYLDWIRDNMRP
Chain of Streptokinase (Homo sapiens) (P00747 581-810 limits assumed): as the sequence (P00747 581-810 limits assumed) above

As for `CC(=O)NCCc1ccc2c(c1)O[C@H](c1ccc(O)c(O)c1)[C@H](NC(C)=O)O2` [Compound 1, (2 R,3 R)-2-(3′,4′-dihydroxyphenyl)-3-acetylamino-7-(N-acetyl-2″-aminoethyl)-1,4-benzodioxane], the “Ratio = Ki enzyme/Ki Factor Xa, α-Thrombin” value in series [1] is more than 100. Besides, the inhibitory constant (Ki) in series [1] (substrate S-2238), in series [2] (substrate S-2222), in series [3] (substrate S-2251), in series [4] (substrate S-2366), in series [5] (substrate S-2251) and in series [6] (substrate S-2228) was more than 300 µM in each case. This compound also returned a Ki in series [7] (substrate S-2444) of more than 300 µM. Moreover, in series [2], the “Ratio = Ki enzyme/Ki Factor Xa, Trypsin” value is given as more than 100. Also, in series [3], the “Ratio = Ki enzyme/Ki Factor Xa, Plasmin” value is more than 100. Further, the “Ratio = Ki enzyme/Ki Factor Xa, Protein Ca” value in series [4] is recorded as more than 100. For the same compound, the “Ratio = Ki enzyme/Ki Factor Xa, Streptokinase” value in series [5] is reported as more than 100. The “Ratio = Ki enzyme/Ki Factor Xa, tPA” value in series [6] is given as more than 100. Moreover, the “Ratio = Ki enzyme/Ki Factor Xa, Urokinase” value in series [7] is given as more than 100. In addition, the figures for the bleeding time in series [8] (mice treated with 10 µM) and in series [8] (mice treated with 30 µM) were 13.5 ± 1.3 min and 14.3 ± 1.2 min, respectively.

Broadly, the Ki is the dissociation constant of the complex between target and ligand, obtained from inhibition or displacement. High values mean weaker binding, low ones tighter binding.
